We go through 31 compounds from US12404283B2, “c-MYC mRNA translation modulators and uses thereof in the treatment of cancer” (Anima Biotech Inc., priority 2022, dated 2025).

For this assay, the system named is c-Myc. The experiment in a line: c-Myc immunofluorescence assay. In kind it is cell-based, human. Conditions: A549 cells, 24 hours treatment, anti-c-Myc immunofluorescence. A digest of the protocol:
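A549 cells grown 48 h, exposed 24 h to rising compound concentrations, then fixed, permeabilised and stained for c-Myc plus DAPI. Nuclear-segmented c-Myc fluorescence quantified by high-content imaging at 20×; EC50 from logistic dose–response fits.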

Each structure is given as a SMILES string.

In the case of `CCN(CC)CCCNC(=O)c1ccc2c(c1)sc1nc(-c3ccc(C(=O)O)cc3)cn12` [compound 172, 4-(7-((3-(diethylamino)propyl)carbamoyl)benzo[d]imidazo [2,1-b]thiazol-2-yl)benzoic acid], the “Myc Efficacy (−LogEC50)” value is given as “− (− ≤3)”.
Regarding `CCN(CC)CCCNC(=O)c1ccc2c(c1)sc1nc(-c3ccc(C4COC4)cc3)cn12` [compound 173, N-(3-(diethylamino)propyl)-2-(4-(oxetan-3-yl)phenyl)benzo[d]imidazo [2,1-b]thiazole-7-carboxamide], the “Myc Efficacy (−LogEC50)” value is “++ (++ ≥5 and <6)”.
As to `CNC(=O)c1ccc(-c2cn3c(n2)sc2cc(C(=O)NCCCN4CCCCC4)ccc23)cc1` [compound 174, 2-(4-(methylcarbamoyl)phenyl)-N-(3-(piperidin-1-yl)propyl)benzo[d]imidazo [2,1-b]thiazole-7-carboxamide], the “Myc Efficacy (−LogEC50)” value is given as “+++ (+++ ≥6)”.
Take `CNC(=O)c1ccc(-c2cn3c(n2)sc2cc(C(=O)NCCCN4CCNCC4)ccc23)cc1` [compound 175, 2-(4-(methylcarbamoyl)phenyl)-N-(3-(piperazin-1-yl)propyl)benzo[d]imidazo [2,1-b]thiazole-7-carboxamide]: the “Myc Efficacy (−LogEC50)” value is on record as “− (− ≤3)”.
In the case of `CNC(=O)c1ccc(-c2cn3c(n2)sc2cc(C(=O)NCC4CCN(C)C4)ccc23)cc1` (stereo not shown) [compound 176, 2-(4-(methylcarbamoyl)phenyl)-N-((1-methylpyrrolidin-3-yl)methyl)benzo[d]imidazo [2,1-b]thiazole-7-carboxamide] it was “− (− ≤3)”.
Take `CCN(CCCNC(=O)c1ccc2c(c1)sc1nc(-c3cccc(C)c3)cn12)CC(F)(F)F` [compound 177, N-(3-(ethyl(2,2,2-trifluoroethyl)amino)propyl)-2-(m-tolyl)benzo[d]imidazo[2,1-b]thiazole-7-carboxamide]: the “Myc Efficacy (−LogEC50)” value is “+ (+ >3 and <5)”.
With `Cc1cccc(-c2cn3c(n2)sc2cc(C(=O)NCCCNCC(F)(F)F)ccc23)c1` [compound 178, 2-(m-tolyl)-N-(3-((2,2,2-trifluoroethyl)amino)propyl) benzo[d]imidazo[2,1-b]thiazole-7-carboxamide], the “Myc Efficacy (−LogEC50)” value was “+ (+ >3 and <5)”.
In the case of `CCN(CC)CCCNC(=O)c1ccc2c(c1)sc1nc(-c3ccc(N4CCCC4=O)cc3)cn12` [compound 179, N-(3-(diethylamino)propyl)-2-(4-(2-oxopyrrolidin-1-yl)phenyl)benzo[d]imidazo [2,1-b]thiazole-7-carboxamide], the “Myc Efficacy (−LogEC50)” value was “+ (+ >3 and <5)”.
`CCN(CC)CCCN(C)C(=O)c1ccc2c(c1)sc1nc(-c3ccc(C(=O)NC)cc3)cn12` [compound 180, N-(3-(diethylamino)propyl)-N-methyl-2-(4-(methylcarbamoyl)phenyl) benzo[d]imidazo[2,1-b]thiazole-7-carboxamide]: the “Myc Efficacy (−LogEC50)” value is “+ (+ >3 and <5)”.
Take `CCN(CC)CCCN(C)C(=O)c1ccc2c(c1)sc1nc(-c3cccc(C)c3)cn12` [compound 181, N-(3-(diethylamino)propyl)-N-methyl-2-(m-tolyl)benzo[d]imidazo[2,1-b]thiazole-7-carboxamide]: the “Myc Efficacy (−LogEC50)” value is “++ (++ ≥5 and <6)”.
Take `CNC(=O)c1ccc(-c2cn3c(n2)sc2cc(C(=O)NC[C@H]4COCCO4)ccc23)cc1` [compound 182, (S)-N-((1,4-dioxan-2-yl)methyl)-2-(4-(methylcarbamoyl)phenyl) benzo[d]imidazo[2,1-b]thiazole-7-carboxamide]: the “Myc Efficacy (−LogEC50)” value is reported as “− (− ≤3)”.
For the compound `CNC(=O)c1ccc(-c2cn3c(n2)sc2cc(C(=O)NCCN4CC5(COC5)C4)ccc23)cc1` [compound 183, N-(2-(2-oxa-6-azaspiro[3.3]heptan-6-yl)ethyl)-2-(4-(methylcarbamoyl)phenyl) benzo[d]imidazo[2,1-b]thiazole-7-carboxamide], the “Myc Efficacy (−LogEC50)” value is “+ (+ >3 and <5)”.
`CNC(=O)c1ccc(-c2cn3c(n2)sc2cc(C(=O)NCCN4CCN(C)CC4)ccc23)cc1` [compound 184, 2-(4-(methylcarbamoyl)phenyl)-N-(2-(4-methylpiperazin-1-yl)ethyl)benzo[d]imidazo [2,1-b]thiazole-7-carboxamide]: the “Myc Efficacy (−LogEC50)” value is “+ (+ >3 and <5)”.
As for `CNC(=O)c1ccc(-c2cn3c(n2)sc2cc(C(=O)NC4CCNCC4)ccc23)cc1` [compound 185, 2-(4-(methylcarbamoyl)phenyl)-N-(piperidin-4-yl)benzo[d]imidazo[2,1-b]thiazole-7-carboxamide], the “Myc Efficacy (−LogEC50)” value is “++ (++ ≥5 and <6)”.
Take `CNC(=O)c1ccc(-c2cn3c(n2)sc2cc(C(=O)N[C@@H](C)COC)ccc23)cc1` [compound 186, (S)-N-(1-methoxypropan-2-(methylcarbamoyl)phenyl) benzo[d]imidazo[2,1-b]thiazole-7-carboxamide]: the “Myc Efficacy (−LogEC50)” value was “+ (+ >3 and <5)”.
Regarding `CNC(=O)c1ccc(-c2cn3c(n2)sc2cc(C(=O)NC(C)CCO)ccc23)cc1` (stereo not shown) [compound 187, N-(4-hydroxybutan-2-yl)-2-(4-(methylcarbamoyl)phenyl) benzo[d]imidazo[2,1-b]thiazole-7-carboxamide], the “Myc Efficacy (−LogEC50)” value is reported as “− (− ≤3)”.
For `CC[C@@H](CO)NC(=O)c1ccc2c(c1)sc1nc(-c3ccc(C(=O)NC)cc3)cn12` [compound 188, (S)-N-(1-hydroxybutan-2-yl)-2-(4-(methylcarbamoyl)phenyl) benzo[d]imidazo[2,1-b]thiazole-7-carboxamide], the “Myc Efficacy (−LogEC50)” value was “+ (+ >3 and <5)”.
Regarding `CNC(=O)c1ccc(-c2cn3c(n2)sc2cc(C(=O)NCCCOC)ccc23)cc1` [compound 189, N-(3-methoxypropyl)-2-(4-(methylcarbamoyl)phenyl) benzo[d]imidazo[2,1-b]thiazole-7-carboxamide], the “Myc Efficacy (−LogEC50)” value is on record as “− (− ≤3)”.
Turning to `CNC(=O)c1ccc(-c2cn3c(n2)sc2cc(C(=O)NC4CCN(C(=O)C5CC5)CC4)ccc23)cc1` [compound 190, N-(1-(cyclopropanecarbonyl)piperidin-4-yl)-2-(4-(methylcarbamoyl)phenyl) benzo[d]imidazo[2,1-b]thiazole-7-carboxamide], the “Myc Efficacy (−LogEC50)” value is “+ (+ >3 and <5)”.
Consider `CNC(=O)c1ccc(-c2cn3c(n2)sc2cc(C(=O)NCCC(=O)N4CCCCC4)ccc23)cc1` [compound 191, 2-(4-(methylcarbamoyl)phenyl)-N-(3-oxo-3-(piperidin-1-yl)propyl)benzo[d]imidazo [2,1-b]thiazole-7-carboxamide], for which the “Myc Efficacy (−LogEC50)” value is “+ (+ >3 and <5)”.
Consider `CNC(=O)c1ccc(-c2cn3c(n2)sc2cc(C(=O)N[C@@H](CO)CC(C)C)ccc23)cc1` [compound 192, (R)-N-(1-hydroxy-4-methylpentan-2-yl)-2-(4-(methylcarbamoyl)phenyl) benzo[d]imidazo[2,1-b]thiazole-7-carboxamide], for which the “Myc Efficacy (−LogEC50)” value is on record as “− (− ≤3)”.
Take `CCN(CCCN(C)C(=O)c1ccc2c(c1)sc1nc(-c3cccc(C)c3)cn12)CC(F)(F)F` [compound 193, N-(3-(ethyl(2,2,2-trifluoroethyl)amino)propyl) N-methyl-2-(m-tolyl)benzo[d]imidazo[2,1-b]thiazole-7-carboxamide]: the “Myc Efficacy (−LogEC50)” value was “+ (+ >3 and <5)”.
Then `CCN(CC)CCCNC(=O)c1ccc2c(c1)sc1nc(-c3cc(C)ccn3)cn12` [compound 194, N-(3-(diethylamino)propyl)-2-(4-methylpyridin-2-yl)benzo[d]imidazo[2,1-b]thiazole-7-carboxamide], with “+ (+ >3 and <5)”.
Then `CNC(=O)c1ccc(-c2cn3c(n2)sc2cc(C(=O)NCC4(O)COC4)ccc23)cc1` [compound 195, N-((3-hydroxyoxetan-3-yl)methyl)-2-(4-(methylcarbamoyl)phenyl) benzo[d]imidazo[2,1-b]thiazole-7-carboxamide], with “− (− ≤3)”; and `CNC(=O)c1ccc(-c2cn3c(n2)sc2cc(C(=O)NC[C@H]4CCNC[C@@H]4O)ccc23)cc1` [compound 196, N-(((3R,4R)-3-hydroxypiperidin-4-yl)methyl)-2-(4-(methylcarbamoyl)phenyl) benzo[d]imidazo[2,1-b]thiazole-7-carboxamide], with “+ (+ >3 and <5)”; and `CNC(=O)c1ccc(-c2cn3c(n2)sc2cc(C(=O)NC(C)C(=O)N(C)C)ccc23)cc1` (stereo not shown) [compound 197, N-(1-(dimethylamino)-1-oxopropan-2-yl)-2-(4-(methylcarbamoyl)phenyl) benzo[d]imidazo[2,1-b]thiazole-7-carboxamide], with “+ (+ >3 and <5)”.
In the case of `CNC(=O)c1ccc(-c2cn3c(n2)sc2cc(C(=O)NC4CN(C)C4)ccc23)cc1` [compound 198, N-(1-methylazetidin-3-yl)-2-(4-(methylcarbamoyl)phenyl) benzo[d]imidazo[2,1-b]thiazole-7-carboxamide], the “Myc Efficacy (−LogEC50)” value was “+ (+ >3 and <5)”.
Turning to `CNC(=O)c1ccc(-c2cn3c(n2)sc2cc(C(=O)NC4(CN)CCC4)ccc23)cc1` [compound 199, N-(1-(aminomethyl)cyclobutyl)-2-(4-(methylcarbamoyl)phenyl) benzo[d]imidazo[2,1-b]thiazole-7-carboxamide], the “Myc Efficacy (−LogEC50)” value is “+ (+ >3 and <5)”.
For the compound `CNC(=O)c1ccc(-c2cn3c(n2)sc2cc(C(=O)NCC[C@H](C)N)ccc23)cc1` [compound 200, (S)-N-(3-aminobutyl)-2-(4-(methylcarbamoyl)phenyl) benzo[d]imidazo[2,1-b]thiazole-7-carboxamide], the “Myc Efficacy (−LogEC50)” value is “+ (+ >3 and <5)”.
As to `CNC(=O)c1ccc(-c2cn3c(n2)sc2cc(C(=O)NCCOC)ccc23)cc1` [compound 201, N-(2-methoxyethyl)-2-(4-(methylcarbamoyl)phenyl) benzo[d]imidazo[2,1-b]thiazole-7-carboxamide], the “Myc Efficacy (−LogEC50)” value was “+ (+ >3 and <5)”.
Turning to `CNC(=O)c1ccc(-c2cn3c(n2)sc2cc(C(=O)NCCc4cnn(C)c4)ccc23)cc1` [compound 202, N-(2-(1-methyl-1H-pyrazol-4-yl)ethyl)-2-(4-(methylcarbamoyl)phenyl) benzo[d]imidazo[2,1-b]thiazole-7-carboxamide], the “Myc Efficacy (−LogEC50)” value is given as “− (− ≤3)”.
